Results: patent US4411834A, “Preparation of II-deoxy anthracycline antibiotics” (Farmitalia Carlo Erba, S.p.A., priority 1978, dated 1983)
In brackets after ≈: the same amount, converted by molar mass. Where two headings read alike, the source gives them in different places.

Experiments:
[1] = test system: HeLa cells; assay: Effect on HeLa cells viability in vitro; format: cell-based; details: Homo sapiens; for activity at 0.4 µg/mL: dose 400 ng/ml; for activity at 0.1 µg/mL: dose 100 ng/ml; for activity at 0.2 µg/mL: dose 200 ng/ml; for activity at 0.05 µg/mL: dose 50 ng/ml
Experimental: (§1) The new glycosides were tested against HeLa cells in vitro (time of exposure to the drugs: 24 hours), and on L 1210 and P 388 leukemia in mice in comparison with daunomycin.
^(a) HeLa cells were exposed to the drugs for 24 hours, then plated.
Number of colonies was evaluated 5 days later.
^(b) % over untreated controls.

[2] = Toxic deaths in leukemia-bearing mice; format: in vivo; details: for Toxic deaths: intraperitoneally on day 1, macroscopic autopsy findings
Experimental: as §1

[3] = test system: Staphylococcus aureus 209 P; assay: MIC, standard tube dilution procedure; format: cell-based; details: in vitro
Experimental: (§2) The "in vitro" minimum inhibitory concentrations (MIC) of glycosides A, B, C and D were determined for certain microorganisms using the standard tube dilution procedure and are reported in Table 6.

[4] = test system: Staphylococcus aureus 153; assay: MIC, standard tube dilution procedure; format: cell-based; details: in vitro
Experimental: as §2

[5] = test system: Escherichia coli B; assay: MIC, standard tube dilution procedure; format: cell-based; details: in vitro
Experimental: as §2

[6] = test system: Bacillus subtilis ATCC 6633; assay: MIC, standard tube dilution procedure; format: cell-based; details: ATCC6633, in vitro
Experimental: as §2

[7] = test system: Sarcina lutea ATCC 9341; assay: MIC, standard tube dilution procedure; format: cell-based; details: Micrococcus luteus, ATCC9341, in vitro
Experimental: as §2

[8] = test system: P 388 leukemia; assay: Effect against P 388 leukemia in mice; format: in vivo
Experimental: as §1
^(a) Mice were treated intraperitoneally on day 1 after tumor cell

[9] = 24 h, read-out: No. of colonies, % over untreated controls
[10] = 24 h, HeLa cells, 24 hours exposure, read-out: ID50 (the source's name)
[11] = 24 hours exposure, read-out: No. of colonies, % over untreated controls
[12] = 24 h, HeLa cells, 24 hours exposure, colonies evaluated 5 days later (Table 7), read-out: ID50 (the source's name)

**Q.** For `COc1cccc2c1C(=O)c1c(O)c3c(c(O)c1C2=O)C[C@@](O)(C(C)=O)C[C@@H]3O[C@H]1C[C@H](N)[C@H](O)[C@H](C)O1` [Daunomycin, reference compound], which IC50 ([1]; 24 h, read-out: ID50) is on record?
**A.** Its IC50 is 0.006 to 0.007 µg/mL (≈ 0.0114 to 0.0133 µM).

**Q.** What about the activity at 0.00312 µg/mL [1, 9] of the same compound?
**A.** The activity at 0.00312 µg/mL was 71 to 80%.

**Q.** And the activity at 0.00625 µg/mL [1, 9]?
**A.** The activity at 0.00625 µg/mL was 48 to 66%.

**Q.** And the Toxic deaths ([2]; 6.6 mg/kg)?
**A.** Its Toxic deaths is 14/26.

**Q.** What does the source list for `COc1cccc2c1C(=O)c1c(cc3c(c1O)[C@@H](O[C@H]1C[C@H](N)[C@H](O)[C@H](C)O1)C[C@](O)(C(C)O)C3)C2=O` (stereo partly drawn) [Glycoside B, 11-deoxy-13-dihydrodaunomycin]?
**A.** IC50 [1, 10]: 0.44 µg/mL (≈ 0.857 µM); activity at 0.4 µg/mL [1, 11]: 66%; activity at 0.8 µg/mL ([1]; dose 800 ng/ml, 24 hours exposure, read-out: No. of colonies, % over untreated controls): 20%; activity at 1.6 µg/mL ([1]; dose 1600 ng/ml, 24 hours exposure, read-out: No. of colonies, % over untreated controls): 0%; MIC [3]: 1000 µg/mL (≈ 1950 µM); MIC [4]: 1000 µg/mL (≈ 1950 µM); MIC [5]: 100 µg/mL (≈ 195 µM); MIC [6]: 100 µg/mL (≈ 195 µM); MIC [7]: 100 µg/mL (≈ 195 µM); Toxic deaths ([2]; 500 mg/kg): 2/2

**Q.** Which results are given for `CC[C@]1(O)Cc2cc3c(c(O)c2[C@@H](O[C@H]2C[C@H](N)[C@H](O)[C@H](C)O2)C1)C(=O)c1c(OC)cccc1C3=O` [Glycoside D, 11-deoxy-13-deoxo-daunomycin]?
**A.** IC50 [1, 10]: 0.22 µg/mL (≈ 0.442 µM); activity at 0.1 µg/mL [1, 11]: 109%; activity at 0.2 µg/mL [1, 11]: 53%; activity at 0.4 µg/mL [1, 11]: 0%; MIC [3]: 250 µg/mL (≈ 502 µM); MIC [4]: 1000 µg/mL (≈ 2010 µM); MIC [5]: 50 µg/mL (≈ 100 µM); MIC [6]: 100 µg/mL (≈ 201 µM); MIC [7]: 25 µg/mL (≈ 50.2 µM); Toxic deaths ([2]; 125 mg/kg): 5/5; Toxic deaths ([2]; 250 mg/kg): 5/5

**Q.** For `COc1cccc2c1C(=O)c1c(cc3c(c1O)[C@@H](O[C@H]1C[C@H](N)[C@H](O)[C@H](C)O1)C[C@](O)(C(=O)CO)C3)C2=O` [Glycoside A, 11-deoxyadriamycin], which IC50 [1, 12] is on record?
**A.** The IC50 was 0.105 µg/mL (≈ 0.199 µM).

**Q.** And the IC50 [1, 10]?
**A.** The IC50 was 0.1 µg/mL (≈ 0.19 µM).

**Q.** What about the activity at 0.025 µg/mL ([1]; dose 25 ng/ml, 24 hours exposure, read-out: No. of colonies, % over untreated controls) of the same compound?
**A.** The activity at 0.025 µg/mL was 74%.

**Q.** What about the activity at 0.05 µg/mL [1, 11] of the same compound?
**A.** Its activity at 0.05 µg/mL is 73%.

**Q.** And the activity at 0.1 µg/mL [1, 11]?
**A.** The activity at 0.1 µg/mL was 63%.

**Q.** What about the activity at 0.2 µg/mL [1, 11] of the same compound?
**A.** Its activity at 0.2 µg/mL is 1%.

**Q.** What about the MIC [3] of the same compound?
**A.** Its MIC is 125 µg/mL (≈ 237 µM).

**Q.** And the MIC [4]?
**A.** The MIC was 500 µg/mL (≈ 948 µM).

**Q.** What about the MIC [5] of the same compound?
**A.** The MIC was 50 µg/mL (≈ 94.8 µM).

**Q.** What about the MIC [6] of the same compound?
**A.** The MIC was 100 µg/mL (≈ 190 µM).

**Q.** What about the MIC [7] of the same compound?
**A.** Its MIC is 100 µg/mL (≈ 190 µM).

**Q.** What about the “Antitumor activity compared with daunomycin (in words)” value ([8]; at the tolerated dose) of the same compound?
**A.** The value was “greater than that of daunomycin”.

**Q.** What about the “Activity against P 338 leukemia (in words)” value ([8]; dose of 66 mg/kg) of the same compound?
**A.** Its value is “active”.

**Q.** And the “Toxicity (in words)” value ([2]; dose of 100 mg/kg, mice)?
**A.** Its value is “toxic”.

**Q.** For `COc1cccc2c1C(=O)c1c(cc3c(c1O)[C@@H](O[C@H]1C[C@H](N)[C@H](O)[C@H](C)O1)C[C@](O)(C(C)=O)C3)C2=O` [Glycoside C, 11-deoxydaunomycin], which IC50 [1, 12] is on record?
**A.** Its IC50 is 0.054 µg/mL (≈ 0.106 µM).

**Q.** What about the IC50 [1, 10] of the same compound?
**A.** The IC50 was 0.05 µg/mL (≈ 0.0977 µM).

**Q.** And the activity at 0.05 µg/mL [1, 11]?
**A.** Its activity at 0.05 µg/mL is 54%.

**Q.** What about the activity at 0.1 µg/mL [1, 11] of the same compound?
**A.** The activity at 0.1 µg/mL was 44%.

**Q.** What about the activity at 0.2 µg/mL [1, 11] of the same compound?
**A.** The activity at 0.2 µg/mL was 3%.

**Q.** What about the MIC [3] of the same compound?
**A.** Its MIC is 62 µg/mL (≈ 121 µM).

**Q.** And the MIC [4]?
**A.** The MIC was 250 µg/mL (≈ 489 µM).

**Q.** What about the MIC [5] of the same compound?
**A.** Its MIC is 25 µg/mL (≈ 48.9 µM).

**Q.** And the MIC [6]?
**A.** Its MIC is 50 µg/mL (≈ 97.7 µM).

**Q.** What about the MIC [7] of the same compound?
**A.** Its MIC is 12.5 µg/mL (≈ 24.4 µM).

**Q.** What about the Toxic deaths ([2]; 100 mg/kg) of the same compound?
**A.** Its Toxic deaths is 3/8.

**Q.** And the Toxic deaths ([2]; 150 mg/kg)?
**A.** Its Toxic deaths is 3/19.
